Experimental data from patent US20070254861A1, “Methods for the prevention and/or treatment of peripheral arterial disease” (Astellas Pharma Inc., priority 2006, published 2007).
Where two headings read alike, the source gives them in different places. Numbered stars: 1 amine (or outer) side, 2 acyl side, 3 side chain; on linkers, the order of the positions; unused ones are H or OH. Bridge positions count the residues as written; N and C are the ends. Square brackets hold non-standard residues; d marks the D form. Peptide text beside a SMILES is read from it. Leu(3R-O(AcLeu(3R-OH))) = CC(=O)N[C@H](C(=O)O[C@H](C(C)C)[C@H](N)C(=O)O)[C@H](O)C(C)C; X1 = CO[C@H](C)C(C(=O)[*:2])N(C)[*:1]; dPhLac = O=C(O)[C@H](O)Cc1ccccc1; NMeA = CN[C@@H](C)C(=O)O; NMeDha = C=C(NC)C(=O)O

What was measured:
[1] = system: systemic blood pressure and heart rate; assay: Blood pressure and heart rate after single bolus injection in femoral artery of rats; assay type: in vivo, rat
Protocol: Five male SD rats (Japan CLEA) were used in each group of this experiment. The rats, which were fasted overnight, were anesthetized with urethane (1.4 g/kg i.p.) and then secured on an operating table. The left carotid artery was cannulated with polyethylene catheters in order to monitor systemic blood pressure and heart rate. The left femoral artery was likewise cannulated with polyethylene catheters for the injection of compound (I). Systemic blood pressure was measured with a pressure transducer (AP-200T, Nihon Kohden) and heart rate was measured with a tachometer (AT-600G, Nihon Kohden) that was triggered by the arterial pulse wave. Changes in these parameters were continuously monitored by a thermal recorder (WT-685G, Nihon Kohden). Compound (I) was administered in an i.a. bolus injection at the rate of 5 mL/kg. The dosage (10 to 100 μg/kg) was increased every 10 to 20 minutes. The inhibitory rate was calculated by dividing the heart rate and mean blood pressure levels obtained after the compound (I) injection by them obtained after the vehicle injection.

[2] = system: ADP-induced platelet aggregation; settings: JP-2003-210190; Journal of Antibiotics, 56, 358, 2003; cited from earlier work
[3] = system: dermal blood flow in rat hindlimbs; assay: Decreased dermal blood flow after lauric acid injection (laser Doppler); assay type: in vivo
Protocol: Three male SD rats (Japan CLEA) were used in each group of this experiment. A laser Doppler blood flow meter (Laser Doppler Perfusion Imager System, Lisca) was used to evaluate the perfusion in the left (ischemic) and right (non-ischemic) rat hindlimbs. Before and during scanning, animals were placed on a heating plate set at 37° C. to minimize variations in temperature. The femoral artery was cannulated with a polyethylene catheter for i.a. injection of the lauric acid and test drug. For i.v. PGE1 infusion, the jugular vein was cannulated with a polyethylene catheter. Either compound (I) (10 μg/kg) or vehicle was administered in an i.a. bolus injection 15 minutes after the lauric acid injection (0.33 ml/kg, 7.5 mg/ml in distilled water). The laser Doppler images were recorded just before and 10 minutes after the lauric acid injection, as well as 10 minutes after the compound (I) (or vehicle) injection. PGE1 was administered by i.v. infusion at a rate of 1 μg/kg/minutes for 30 minutes beginning 5 minutes before the lauric acid injection. The laser Doppler images were recorded just before and 5 minutes after the start of infusion (just before the lauric acid injection), and then again 10 minutes after the lauric acid injection. Either vehicle (0.5% methylcellulose solution) or clopidogrel (30 mg/kg) was orally administered 4 hours before the experiment. For the oral studies, the laser Doppler images were recorded just before and 10 minutes after the lauric acid injection.

[4] = Pharmacokinetic studies using rats, i.v. bolus injection; assay type: in vivo; settings: rat, iv, plasma, after i.v. bolus injection
[5] = system: isolated rat aorta; assay: Vasorelaxant effect on vasoconstriction in isolated rat aorta; assay type: cell-based; settings: for IC50: Rattus norvegicus
Protocol: Four male SD rats (Japan CLEA) were used in each group of this experiment. Rats were anesthetized with pentobarbital (60 mg/kg i.p.) and euthanized via exsanguination. The aortas were isolated and all adjacent tissue was removed. Rings of aorta, approximately […] length, were suspended in 10-ml organ baths containing Krebs-Henseleit solution (henceforth referred to as Krebs) of the following composition (mM): NaCl, 112.0; KCl, 4.7; KH2PO4, 1.2; MgSO4, 1.2; CaCl2, 2.5; NaHCO3, 25.0; glucose, 11.0. The Krebs was maintained at 37±1° C. and aerated with a gas mixture of 95% O2:5% CO2 (pH 7.4). Experiments were conducted on aortic tissue of two types. For type 1, the endothelium was removed by gently rubbing the internal surface of the vessel. For type 2, care was taken to maintain the integrity of the endothelium. One ring was placed on a hook that was suspended from a force displacement transducer (SB-1T, Nihon Kohden, Tokyo, Japan), 1.0 g tension was applied, and changes in the force of contraction were isometrically measured. Following a 1-h equilibration period, the rings were pretreated with 1 μM phenylephrine. Compound (I) was dissolved in dimethyl sulfoxide (DMSO) and added to the baths (0.1% DMSO, v/v), after which a cumulative compound (I) (1-100 nM) concentration-response curve was constructed for each type of ring. Contractions were caused in aorta rings with endothelium using three different compounds: 10 μM serotonin (5-HT), 30 nM endothelin-1 (ET-1), and 60 mM KCl. The vasorelaxant effect of compound (I) on the contractions caused by each of these compounds was then compared. Various concentrations of compound (I) were added 30 minutes before treatment with each vasoconstrictor. For 5-HT and KCl, the concentration-inhibition rate was measured for each tissue. For ET-1, each tissue was used to measure the inhibition rate in response to a given concentration of compound (I).

[6] = system: ADP-induced platelet aggregation; assay: Ex vivo platelet aggregation inhibition after single administration in the rat femoral artery; settings: 5 minutes after injection, n=4, mean±SEM
Protocol: Four male SD rats (Japan CLEA) were used in each group of this experiment. All animals were fasted overnight before the experiment. After being anesthetized with pentobarbital (60 mg/kg i.p.), vehicle (5% ethanol) or compound (I) was injected into either the left femoral artery or the right jugular vein via a catheter. The rats were anesthetized with pentobarbital (60 mg/kg i.p.) before blood sampling. Blood was collected from the vena cava in syringes containing 3.8% sodium citrate at the following time points: 5 minutes after an intra-arterial (i.a.) single bolus injection of compound (I) (1-10 μg/kg). Platelet-rich plasma was obtained by centrifuging the blood at 200×g for 5 minutes at ambient temperature. This residue was further centrifuged at 2,000×g for 10 minutes in order to obtain platelet-poor plasma. Platelet counts were measured with an automatic cell counter (MEK-6258, Nihon Kohden, Tokyo, Japan), and adjusted to 3×10^5/μl with platelet-poor plasma. Platelet aggregation in platelet-rich plasma was measured using an aggregometer (MCM Hema Tracer 212, MC Medical, Tokyo, Japan) to record the increase in light transmission detected through a stirred suspension maintained at 37° C. for 5 minutes. Platelet aggregation was induced in 90 μl of platelet-rich plasma (3×10^5/μl) by adding 10 μl of 50 μM ADP. The inhibitory rate was calculated by dividing the absorbance area for the mixture containing the test sample by the absorbance area obtained for the vehicle-treated group.

[7] = system: lauric acid-induced peripheral arterial disease model; assay: Lesion progression in rat peripheral arterial disease model induced by lauric acid; assay type: in vivo
Protocol: A rat peripheral arterial disease model was produced by using a lauric acid injection method modified from that of Ashida et al. (Thrombosis research, 18, 55, 1980). Six to 24 animals were used in each group of this experiment. After being fasted overnight, each rat was anesthetized with pentobarbital (60 mg/kg i.p.), and the left femoral artery was freed from the surrounding tissue. The femoral artery was cannulated with a polyethylene catheter for i.a. injection of the lauric acid and the test drug. For the i.v. infusion of PGE1, the jugular vein was cannulated with a polyethylene catheter. To induce peripheral arterial vascular injury, 0.33 ml/kg of lauric acid (7.5 mg/ml in distilled water) was injected into the distal side of the arterial. Compound (I) was administered in a single i.a. bolus injection 15 minutes after the lauric acid injection. PGE1 was administered either intravenously for 30 minutes at 1 μg/kg/minutes starting 5 minutes before the lauric acid injection or intra-arterially for 15 minutes at 0.2 μg/kg/minutes starting 5 minutes after the lauric acid injection. Clopidogrel was administered orally either at 3 and 30 mg/kg 4 hours before the lauric acid injection, or at 30 mg/kg 2 hours after the lauric acid injection. It was also administered orally once a day for 3 days after the lauric acid injection. The treated hindlimb was examined macroscopically on days 3 after the lauric acid injection. The progress of the lesion was assessed using the following 5-point graded scoring system: grade 0: normal appearance, grade 1: the affected region was limited to the nails, grade 2: the affected region was limited to the fingers, grade 3: either the fingers are beginning to fall off or lesions appear on the paw, grade 4: either the paw is beginning to fall off or lesions appear on the leg. The condition of each toe was assessed and scored, and the sum of the scores for the five toes was used as the lesion index. If a lesion developed on the sole of the foot, 5 more points were added.

[8] = system: Gq/11; settings: Journal of Biological Chemistry, 279, 47438, 2004; cited from earlier work

## C=C1C(=O)N[C@@H](C)C(=O)N(C)[C@@H](C)C(=O)N[C@@H]([C@H](OC(=O)[C@@H](NC(C)=O)[C@H](O)C(C)C)C(C)C)C(=O)N(C)C([C@@H](C)OC)C(=O)O[C@H](C)[C@H](NC(C)=O)C(=O)O[C@H](Cc2ccccc2)C(=O)N1C (stereo partly drawn) [compound (I)] (Ac-T[dPhLac][NMeDha]A[NMeA][Leu(3R-O(AcLeu(3R-OH)))][X1]; ester 1-C)
[1]; 30 μg/kg i.a. bolus
  Relative mean blood pressure reduction: 25±5.2%
[1]; 100 μg/kg i.a. bolus
  Relative mean blood pressure reduction: 50±2.1%
[1]; i.a. administration
  Hypotensive dose relative to dose with significant preventive effect (Example 4): 10 times
[1]; i.a. bolus, Example 6
  Significant hypotensive dose: 30 µg/kg
[1]; up to 100 μg/kg i.a.
  Change of the heart rate: no significant change
[2]
  Inhibition of ADP-induced platelet aggregation in human: inhibits ADP-induced platelet aggregation in human
[3]; 10 μg/kg i.a. bolus 15 minutes after the lauric acid injection
  Effect on lauric acid-induced reduction in dermal blood flow: improved the lauric acid-induced reduction in dermal blood flow somewhat, but did not correct it completely
[4]
  half-life: 3.7 min
[5]; 60 mM KCl, even at a concentration of 1 μM
  Effect on KCl-induced contractions: ineffective
[5]; contraction induced by 30 nM ET-1, aorta with endothelium, n=4, mean, read-out: IC50 of inhibition of vascular contraction
  IC50: 18 nM
[5]; contraction induced by 10 μM 5-HT, aorta with endothelium, n=4, mean±SEM, read-out: IC50 of inhibition of vascular contraction
  IC50: 8.6 ± 1 nM
[5]; span over the three vasoconstrictors, read-out: IC50 values for vasoconstrictions induced by phenylephrine, 5-HT and ET-1
  IC50: 8.6 to 18 nM
[5]; with endothelium, pre-contracted with 1 μM phenylephrine, n=4, mean±SEM, read-out: IC50 of relaxation of isolated rat aorta
  IC50: 16 ± 2.3 nM
[5]; without endothelium, pre-contracted with 1 μM phenylephrine, n=4, mean±SEM, read-out: IC50 of relaxation of isolated rat aorta
  IC50: 11 nM
[6]; 1 μg/kg i.a. bolus
  Inhibitory rate of ADP-induced platelet aggregation: −5.6±5.4%
[6]; 3 μg/kg i.a. bolus
  Inhibitory rate of ADP-induced platelet aggregation: 38±5.1%
[6]; 10 μg/kg i.a. bolus
  Inhibitory rate of ADP-induced platelet aggregation: 71±7.0%
[7]; single i.a. bolus 15 minutes after the lauric acid injection, day 3
  Dose inhibiting lesion progression with significance: ≥ 3 µg/kg
[8]
  Gq/11 inhibition: specific Gq/11 inhibitor

## CCCCC[C@H](O)/C=C/[C@H]1[C@H](O)CC(=O)[C@@H]1CCCCCCC(=O)O [PGE1, prostaglandin E1]
[3]; continuous i.v. infusion 1 μg/kg/minutes, after lauric acid injection
  Effect on lauric acid-induced reduction in dermal blood flow: no improvement in the blood flow
[3]; i.v. infusion 1 μg/kg/minutes, 5 minutes after the start of the infusion
  Dermal blood flow in both hindlimbs before lauric acid: marked increase in dermal blood flow
[7]; i.a. infusion at 0.2 μg/kg/minutes for 15 minutes starting 5 minutes after lauric acid
  Inhibition of lesion progression: significantly inhibited lesion progression
[7]; i.v. infusion at 1 μg/kg/minutes for 30 minutes starting 5 minutes before lauric acid
  Inhibition of lesion progression: significantly inhibited lesion progression

## COC(=O)[C@H](c1ccccc1Cl)N1CCc2sccc2C1 [clopidogrel, (+)-(S)-methyl 2-(2-chlorophenyl)-2-(6,7-dihydrothieno[3,2-c]pyridin-5(4H)-yl)acetate]
[3]; 30 mg/kg oral 4 hours before the experiment
  Effect on lauric acid-induced reduction in dermal blood flow: improved the blood flow only slightly
[7]; oral, administered 4 hours before the lauric acid injection
  Inhibition of lesion progression: efficacy of clopidogrel was detected
[7]; oral, administered after the lauric acid injection
  Inhibition of lesion progression: no effect was observed
